In patent US6239131A, “1,5 Benzodiazepine derivatives” (Zeria Pharmaceutical Co., Ltd., priority 1996, dated 2001):

Assays:
CCK-B receptors = target: T1, CCK-B receptors (Cavia porcellus, UniProt H0VZC5); experiment: Measurement of Binding Affinity for CCK-B Receptors; design: species or system Hartley-strain guinea pig; settings: inhibition of specific [3H]CCK-8 (1.0 nM) binding; guinea pig cerebral cortex; 25° C., 2 hours; pH 6.5; read-out: Ki (CCK-B receptors)
T1 construct: Cerebral cortices were removed from Hartley-strain guinea pigs, the cerebral cortices were homogenized; from tissue; host or cells: cerebral cortex of Hartley-strain guinea pigs, crude membrane pellet
T1 sequence (H0VZC5 1-426): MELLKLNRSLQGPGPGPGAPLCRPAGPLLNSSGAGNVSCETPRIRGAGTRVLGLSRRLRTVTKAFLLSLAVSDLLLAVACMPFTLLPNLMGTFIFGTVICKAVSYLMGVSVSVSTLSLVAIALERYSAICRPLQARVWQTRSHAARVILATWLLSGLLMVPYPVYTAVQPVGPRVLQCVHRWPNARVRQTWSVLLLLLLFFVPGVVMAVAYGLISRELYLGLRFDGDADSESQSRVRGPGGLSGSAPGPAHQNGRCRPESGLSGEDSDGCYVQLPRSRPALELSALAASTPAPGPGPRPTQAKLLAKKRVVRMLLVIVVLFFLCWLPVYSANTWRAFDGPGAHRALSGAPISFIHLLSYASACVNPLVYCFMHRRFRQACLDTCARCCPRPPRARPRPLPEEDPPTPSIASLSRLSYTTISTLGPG

CCK-A receptors = target: T2, CCK-A receptors (Cavia porcellus, UniProt Q63931); experiment: Measurement of Binding Affinity for CCK-A Receptors; design: species or system Hartley-strain guinea pig; settings: inhibition of specific [3H]L-364,718 (0.2 nM) binding; guinea pig pancreas; 25° C., 2 hours; pH 6.5
T2 construct: Pancreases were removed from Hartley-strain guinea pigs, the pancreases were homogenized; from tissue; host or cells: pancreas of Hartley-strain guinea pigs, crude membrane pellet
T2 sequence (Q63931 1-430): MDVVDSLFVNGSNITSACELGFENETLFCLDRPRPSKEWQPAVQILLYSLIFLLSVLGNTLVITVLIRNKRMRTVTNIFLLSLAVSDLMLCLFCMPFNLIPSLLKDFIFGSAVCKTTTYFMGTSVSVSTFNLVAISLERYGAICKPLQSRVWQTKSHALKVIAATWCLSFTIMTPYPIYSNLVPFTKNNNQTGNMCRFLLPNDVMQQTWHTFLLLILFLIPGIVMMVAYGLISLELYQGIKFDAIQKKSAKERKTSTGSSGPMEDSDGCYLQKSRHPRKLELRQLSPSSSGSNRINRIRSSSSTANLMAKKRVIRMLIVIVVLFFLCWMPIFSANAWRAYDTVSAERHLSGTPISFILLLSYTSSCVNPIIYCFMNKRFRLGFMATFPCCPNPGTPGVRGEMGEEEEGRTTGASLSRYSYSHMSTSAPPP
Experimental: Pancreases were removed from Hartley-strain guinea pigs, the pancreases were homogenized in 40 volumes of 10 mM PIPES buffer (pH 6.5, which hereinafter be abbreviated as "solvent") containing 1 mM EGTA, 30 mM MgCl2, 0.02% bacitracin, 0.02% soybean trypsin inhibitor and 0.3 M sucrose. The homogenate was filtrated through gauze and centrifuged at 50000×g for 10 minutes. Solvent was added to the pellet and recentrifuged as above. The final pellet thus obtained was homogenized in 40 volumes of solvent and used as the receptor preparation.
Binding assay was measured as follows. Fifty μl of [^3 H]L-364, 718 (at the final concentration of 0.2 nM) and 900 μl of the receptor preparation (50 μg protein/tube) were added to 50 μl of solvent, or L-364, 718 (1 μM) or a test compound. This mixture was incubated at 25° C. for 2 hours. After the reaction, the mixture was filtrated through Whatman GF/B filter presoaked in 0.1% BSA (bovine serum albumin). The filter was washed with 3 ml of ice-cold 10 mM PIPES buffer (pH 6.5) three times, immediately after the filtration. The filter was soaked in the ACS-II scintillation cocktail for one day and radioactivity was measured using a liquid scintillation counter. Non-specific binding was defined as the radioactivity in the presence of 1 μM L-364, 718. Specific binding was defined as the difference between total binding (used solvent without L-364, 718) and non-specific binding. lnhibitor dissociation constant (Ki) of each test compound was determined from the inhibition of specific [^3 H]L-364, 718 binding.

[1] = system: pentagastrin-stimulated acid secretion; experiment: Measurement of Inhibition of Pentagastrin-stimulated Acid Secretion; format: in vivo, male Sprague-Dawley (SD)-strain rats; settings: intraduodenal, rat, acid output from 1 to 4 hours after administration, pentagastrin 15 μg/kg/hr
Experimental: Male Sprague-Dawley (SD)-strain rats were used. Each rat was operated to ligate the pylorus, and equip with a duodenal catheter and gastric fistula under a ether anesthesia. After the operation, each rat was placed in a Bollman-type cage and continuously infused pentagastrin (15 μg/kg/hr) through the tail vein. Test compounds were suspended in 0.5% aqueous sodium carboxymethylcellulose (which hereinafter be abbreviated as "vehicle"). Vehicle or test compound was administered through the intraduodenal catheter 1 hour after the beginning of pentagastrin infusion. Acidity of the collected gastric juice was measured by an automatic titillation device. Acid output was determined by multiplying the volume by the acidity of gastric juice. […] [formula]

## CC(C)(C)C(=O)CN1C(=O)C(NC(=O)Nc2cccc(C(=O)O)c2)CN(c2ccccc2)c2ccccc21 (racemic) [Example 70 (racemate), 3-[3-(1-tert-butylcarbonylmethyl-2-oxo-5-phenyl-1,3,4,5-tetrahydro-2H-1,5-benzodiazepin-3-yl)ureido]benzoic acid]
CCK-B receptors
  Ki: 0.77 nM
CCK-A receptors
  Ki: 303 nM
[1]
  inhibition in vivo at 3 mg/kg: 76.5%

## CC(C)(C)C(=O)CN1C(=O)C(NC(=O)Nc2cccc(C(=O)O)c2)CN(c2ccccc2)c2ccccc21 (single isomer, unassigned; (-)) [Example 70 (-form), (-)-3-[3-(1-tert-butylcarbonylmethyl-2-oxo-5-phenyl-1,3,4,5-tetrahydro-2H-1,5-benzodiazepin-3-yl)ureido]benzoic acid]
CCK-B receptors
  Ki: 0.36 nM
CCK-A receptors
  Ki: 255 nM
[1]
  inhibition in vivo at 1 mg/kg: 84.8%

## CC(C)(C)C(=O)CN1C(=O)C(NC(=O)Nc2cccc(SCC(=O)O)c2)CN(c2ccccc2)c2ccccc21 (single isomer, unassigned; (-)) [Example 88 (-form)]
CCK-B receptors
  Ki: 0.11 nM
CCK-A receptors
  Ki: 16.7 nM
[1]
  inhibition in vivo at 1 mg/kg: 68.4%

## Cc1ccc2c(c1)N(CC(=O)C(C)(C)C)C(=O)C(NC(=O)Nc1cccc(C(=O)O)c1)CN2c1ccccc1 (single isomer, unassigned; (-)) [Example 97, (-)-3-[3-(1-tert-butylcarbonylmethyl-2-oxo-5-phenyl-8-methyl-1,3,4,5-tetrahydro-2H-1,5-benzodiazepin-3-yl)ureido]benzoic acid]
CCK-B receptors
  Ki: 1.59 nM
CCK-A receptors
  Ki: 367 nM

## Cc1cccc(NC(=O)NC2CN(C(=O)C(C)(C)C)c3ccccc3N(CC(=O)c3ccccc3C)C2=O)c1 (stereo not shown) [Example 1, 1-[1-(2-toluoylmethyl)-2-oxo-5-pivaloyl-1,3,4,5-tetrahydro-2H-1,5-benzodiazepin-3-yl]-3-(3-methylphenyl)urea]
CCK-B receptors
  Ki: 6.47 nM
[1]
  inhibition in vivo at 30 mg/kg: 59.4%

## CC(C)(C)C(=O)CN1C(=O)C(NC(=O)Nc2cccc(C(=O)O)c2)CN(C(=O)C(C)(C)C)c2ccccc21 (stereo not shown) [Example 10, 3-[3-(1-tert-butylcarbonylmethyl-2-oxo-5-pivaloyl-1,3,4,5-tetrahydro-2H-1,5-benzodiazepin-3-yl)ureido]benzoic acid]
CCK-B receptors
  Ki: 6.87 nM
[1]; 10 mg/kg, read-out: % Inhibition of acid output
  inhibition in vivo at 10 mg/kg: 67.1%

## Cc1cccc(NC(=O)NC2CN(C(=O)C3CCCCC3)c3ccccc3N(CC(=O)c3ccccc3C)C2=O)c1 (stereo not shown) [Example 14, 1-[1-(2-toluoylmethyl)-2-oxo-5-cyclohexylcarbonyl-1,3,4,5-tetrahydro-2H-1,5-benzodiazepin-3-yl]-3-(3-methylphenyl)urea]
CCK-A receptors
  Ki: 13.2 nM

## Cc1cccc(NC(=O)NC2CN(C(=O)C3CCCC3)c3ccccc3N(CC(=O)c3ccccc3C)C2=O)c1 (stereo not shown) [Example 28, 1-[1-(2-toluoylmethyl)-2-oxo-5-cyclopentylcarbonyl-1,3,4,5-tetrahydro-2H-1,5-benzodiazepin-3-yl]-3-(3-methylphenyl)urea]
CCK-A receptors
  Ki: 14.3 nM

## CC(C)(C)OC(=O)CN1C(=O)C(NC(=O)Nc2cccc(C(=O)O)c2)CN(c2ccccc2)c2ccccc21 (stereo not shown) [Example 80, 3-[3-[1-tert-butoxycarbonylmethyl-2-oxo-5-phenyl-1,3,4,5-tetrahydro-2H-1,5-benzodiazepin-3-yl]ureido]benzoic acid]
CCK-B receptors
  Ki: 2.62 nM
[1]
  inhibition in vivo at 3 mg/kg: 45.4%

## Cc1ccc2c(c1)N(CC(=O)c1ccccc1C)C(=O)C(NC(=O)Nc1cccc(C(=O)O)c1)CN2C(=O)C(C)(C)CCl (stereo not shown) [Example 94, 3-[3-[1-(2-toluoylmethyl)-2-oxo-5-(3-chloro-2,2-dimethylpropionyl)-8-methyl-1,3,4,5-tetrahydro-2H-1,5-benzodiazepin-3-yl]ureido]benzoic acid]
CCK-B receptors
  Ki: 1.62 nM
[1]
  inhibition in vivo at 30 mg/kg: 93.3%

## Cc1ccc2c(c1)N(CC(=O)C(C)(C)C)C(=O)C(NC(=O)Nc1cccc(C(=O)O)c1)CN2c1ccccc1 (stereo not shown) [Example 95, 3-[3-(1-tert-butylcarbonylmethyl-2-oxo-5-phenyl-8-methyl-1,3,4,5-tetrahydro-2H-1,5-benzodiazepin-3-yl]ureido]benzoic acid]
CCK-B receptors
  Ki: 2.26 nM
[1]
  inhibition in vivo at 1 mg/kg: 49%

## CC(=O)N1CC(NC(=O)Nc2cccc(C(=O)O)c2)C(=O)N(CC(=O)c2ccccc2C)c2cc(C)ccc21 (stereo not shown) [Example 111, 3-[3-[1-(2-toluoylmethyl)-2-oxo-5-acetyl-8-methyl-1,3,4,5-tetrahydro-2H-1,5-benzodiazepin-3-yl]ureido]benzoic acid]
CCK-A receptors
  Ki: 6.34 nM

## Cc1ccc2c(c1)N(CC(=O)c1ccco1)C(=O)C(NC(=O)Nc1cccc(C(=O)O)c1)CN2C(=O)C(C)(C)C (stereo not shown) [Example 114, 3-[3-[1-(furan-2-yl)carbonylmethyl-2-oxo-5-pivaloyl-8-methyl-1,3,4,5-tetrahydro-2H-1,5-benzodiazepin-3-yl]ureido]benzoic acid]
CCK-B receptors
  Ki: 9.43 nM
[1]
  inhibition in vivo at 30 mg/kg: 89.7%

## CC(C)(C)C(=O)CN1C(=O)C(NC(=O)Nc2cccc(C(=O)O)c2)CN(C2CCCCC2)c2ccccc21 (stereo not shown) [Example 121, 3-[3-(1-tert-butylcarbonylmethyl-2-oxo-5-cyclohexyl-1,3,4,5-tetrahydro-2H-1,5-benzodiazepin-3-yl)ureido]benzoic acid]
CCK-B receptors
  Ki: 1.2 nM
[1]; 0.3 mg/kg
  inhibition in vivo at 0.3 mg/kg: 47%

## CC(C)(C)C(=O)CN1C(=O)[C@H](NC(=O)Nc2cccc(C(=O)O)c2)CN(C2CCCCC2)c2ccccc21 [Example 143, (R)-(-)-3-[3-(1-tert-butylcarbonylmethyl-2-oxo-5-cyclohexyl-1,3,4,5-tetrahydro-2H-1,5-benzodiazepin-3-yl)ureido]benzoic acid]
CCK-B receptors
  Ki: 0.63 nM
[1]; 0.1 mg/kg
  inhibition in vivo at 0.1 mg/kg: 54.6%

## CC(C)(C)C(=O)CN1C(=O)[C@H](NC(=O)Nc2cccc(C(=O)NS(C)(=O)=O)c2)CN(C2CCCCC2)c2ccccc21 [Example 168, (R)-(-)-1-(1-tert-butylcarbonylmethyl-2-oxo-5-cyclohexyl-1,3,4,5-tetrahydro-2H-1,5-benzodiazepin-3-yl)-3-(3-methylsulfonylaminocarbonylphenyl)urea]
CCK-B receptors
  Ki: 0.21 nM
[1]
  inhibition in vivo at 1 mg/kg: 58.9%

## CC(C)(C)C(=O)CN1C(=O)[C@H](NC(=O)Nc2cccc(SCC(=O)O)c2)CN(C2CCCCC2)c2ccccc21 [Example 169, (R)-(-)-3-[3-(1-tert-butylcarbonylmethyl-2-oxo-5-cyclohexyl-1,3,4,5-tetrahydro-2H-1,5-benzodiazepin-3-yl)ureido]phenylthioacetic acid]
CCK-B receptors
  Ki: 0.1 nM
[1]
  inhibition in vivo at 1 mg/kg: 75.2%
